Measurements from ChEMBL document CHEMBL1136368, “Antiviral activity of cyclopentenyl nucleosides against orthopox viruses (Smallpox, monkeypox and cowpox)” (Bioorg Med Chem Lett, 2003).
Converted amounts (≈) assume the structure as drawn.

Key:
[1] = in vitro; conditions: rhesus monkey, LLC-MK2 cells (ATCC CRL 7)
[2] = system: Vero
[3] = in vitro; conditions: monkey, Vero 76 cells (ATCC CRL 1587)
[4] = system: Vero; remark: listed apart in the source
[5] = system: Vero; remark: listed apart in the source
[6] = system: Vero; remark: listed apart in the source
[7] = system: Vero; remark: listed apart in the source
[8] = system: Vero; remark: listed apart in the source
[9] = in vitro; conditions: rhesus monkey, LLC-MK2 cells (ATCC CRL 7); remark: listed apart in the source
[10] = in vitro; conditions: monkey, Vero 76 cells (ATCC CRL 1587); remark: listed apart in the source
[11] = in vitro; conditions: rhesus monkey, LLC-MK2 cells (ATCC CRL 7); remark: listed apart in the source
[12] = system: Vero; remark: listed apart in the source
[13] = in vitro; conditions: monkey, Vero 76 cells (ATCC CRL 1587); remark: listed apart in the source
[14] = in vitro; conditions: rhesus monkey, LLC-MK2 cells (ATCC CRL 7); remark: listed apart in the source
[15] = in vitro; conditions: monkey, Vero 76 cells (ATCC CRL 1587); remark: listed apart in the source
[16] = system: Vero; remark: listed apart in the source
[17] = system: Vero; remark: listed apart in the source
[18] = system: Vero; remark: listed apart in the source
[19] = in vitro; conditions: rhesus monkey, LLC-MK2 cells (ATCC CRL 7); remark: listed apart in the source
[20] = in vitro; conditions: monkey, Vero 76 cells (ATCC CRL 1587); remark: listed apart in the source

SMILES | selectivity ratio [1] | EC50 [2] [µg/mL] | selectivity ratio [3] | IC50 [4] [µg/mL] | IC50 [5] [µg/mL] | EC50 [6] [µg/mL] | EC50 [7] [µg/mL] | EC50 [8] [µg/mL] | selectivity ratio [9] | selectivity ratio [10] | selectivity ratio [11] | IC50 [12] [µg/mL] | selectivity ratio [13] | selectivity ratio [14] | selectivity ratio [15] | IC50 [16] [µg/mL] | EC50 [17] [µg/mL] | IC50 [18] [µg/mL] | selectivity ratio [19] | selectivity ratio [20]
Nc1nc(=O)n([C@H]2C=C(CO)[C@H](O)[C@@H]2O)cc1F | 162 | 2.63 (≈ 10.2 µM) | > 69 | 100 (≈ 389 µM) | > 100 | 1.46 (≈ 5.68 µM) | 1.17 (≈ 4.55 µM) | 2.05 (≈ 7.97 µM) | 189 | 86 | > 58 | 39 (≈ 152 µM) | > 74 | > 164 | 49 | > 100 | 1.35 (≈ 5.25 µM) | 100 (≈ 389 µM) | > 196 | 15
OCC1=C[C@@H](n2cnc3c(O)ncnc32)[C@H](O)[C@@H]1O |  | > 100 |  | > 100 | > 100 | > 100 | > 100 | > 100 |  |  |  | > 100 |  |  |  | > 100 | > 100 | > 100 |  | 
Nc1ccn([C@@H]2C=C(CO)[C@@H](O)[C@H]2O)c(=O)n1 | > 166 | < 0.05 | 1000 | 30 (≈ 125 µM) | 1 (≈ 4.18 µM) | 0.04 (≈ 0.167 µM) | > 100 | < 0.05 | 300 | 0.3 | 550 | > 100 | > 20 | 210 | > 80 | 40 (≈ 167 µM) | 0.05 (≈ 0.209 µM) | 4 (≈ 16.7 µM) | 100 | > 2000
Nc1ncnc2c1ncn2[C@@H]1C=C(CO)[C@@H](O)[C@H]1O [NEOPLANOCIN A] | 1 | 0.03 (≈ 0.114 µM) | 1 |  | 20 (≈ 76 µM) | > 100 | 0.14 (≈ 0.532 µM) | 0.21 (≈ 0.798 µM) | 12 | 71 | 230 | 50 (≈ 190 µM) | < 0.2 | 161 | 271 | > 100 | > 100 | 57 (≈ 217 µM) | 360 | 1670
